Results on four molecules are retold here after ChEMBL document CHEMBL1201862, “PubChem BioAssay data set” (2004).

Values joined by “and” are separate entries in the source; they are usually repeats but may differ in a detail not shown here. Identical values can stand only once. Active and inactive are the calls of the source.

Test [1] concerns the target Alkaline phosphatase, placental type (Homo sapiens, UniProt P05187). Put plainly: human placental alkaline phosphatase inhibition – biochemical, luminescence, confirmation (AID 1512). In kind it is functional.
The target in test [2] is Glyceraldehyde-3-phosphate dehydrogenase (Homo sapiens, UniProt P04406).
Glyceraldehyde-3-phosphate dehydrogenase, sequence (P04406 whole entry): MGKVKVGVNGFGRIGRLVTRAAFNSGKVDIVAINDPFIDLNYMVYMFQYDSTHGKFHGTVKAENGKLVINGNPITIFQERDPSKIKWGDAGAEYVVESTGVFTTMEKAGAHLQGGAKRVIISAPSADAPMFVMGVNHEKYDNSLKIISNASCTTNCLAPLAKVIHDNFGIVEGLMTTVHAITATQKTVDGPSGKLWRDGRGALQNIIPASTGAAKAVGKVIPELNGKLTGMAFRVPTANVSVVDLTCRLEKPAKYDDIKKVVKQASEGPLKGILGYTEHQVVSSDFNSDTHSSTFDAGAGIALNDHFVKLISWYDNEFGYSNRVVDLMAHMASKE
Test [3] has as its target T1, Alkaline phosphatase, tissue-nonspecific isozyme (Homo sapiens, UniProt P05186).
T1 sequence (P05186 whole entry): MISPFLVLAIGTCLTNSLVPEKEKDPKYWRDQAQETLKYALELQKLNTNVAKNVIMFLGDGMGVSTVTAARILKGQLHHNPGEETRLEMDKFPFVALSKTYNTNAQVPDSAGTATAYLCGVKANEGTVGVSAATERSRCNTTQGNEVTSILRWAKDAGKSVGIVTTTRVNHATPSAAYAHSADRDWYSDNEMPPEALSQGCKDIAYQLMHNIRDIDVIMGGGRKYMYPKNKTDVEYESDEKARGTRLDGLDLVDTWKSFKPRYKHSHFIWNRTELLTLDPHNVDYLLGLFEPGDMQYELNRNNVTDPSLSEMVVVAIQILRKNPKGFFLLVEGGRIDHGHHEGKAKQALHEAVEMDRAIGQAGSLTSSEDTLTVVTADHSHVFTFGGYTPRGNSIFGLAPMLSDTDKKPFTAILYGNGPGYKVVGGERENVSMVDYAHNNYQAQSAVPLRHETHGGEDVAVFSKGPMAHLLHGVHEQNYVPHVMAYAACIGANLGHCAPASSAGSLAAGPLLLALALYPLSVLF
The test is described as follows: potency against alkaline phosphatase TNAP – biochemical, luminescent, dose response, SAR follow-up (AID 1056).

Test [4] addresses T2, Lysine-specific demethylase 4C (Homo sapiens, UniProt Q9H3R0).
T2 sequence (Q9H3R0 whole entry): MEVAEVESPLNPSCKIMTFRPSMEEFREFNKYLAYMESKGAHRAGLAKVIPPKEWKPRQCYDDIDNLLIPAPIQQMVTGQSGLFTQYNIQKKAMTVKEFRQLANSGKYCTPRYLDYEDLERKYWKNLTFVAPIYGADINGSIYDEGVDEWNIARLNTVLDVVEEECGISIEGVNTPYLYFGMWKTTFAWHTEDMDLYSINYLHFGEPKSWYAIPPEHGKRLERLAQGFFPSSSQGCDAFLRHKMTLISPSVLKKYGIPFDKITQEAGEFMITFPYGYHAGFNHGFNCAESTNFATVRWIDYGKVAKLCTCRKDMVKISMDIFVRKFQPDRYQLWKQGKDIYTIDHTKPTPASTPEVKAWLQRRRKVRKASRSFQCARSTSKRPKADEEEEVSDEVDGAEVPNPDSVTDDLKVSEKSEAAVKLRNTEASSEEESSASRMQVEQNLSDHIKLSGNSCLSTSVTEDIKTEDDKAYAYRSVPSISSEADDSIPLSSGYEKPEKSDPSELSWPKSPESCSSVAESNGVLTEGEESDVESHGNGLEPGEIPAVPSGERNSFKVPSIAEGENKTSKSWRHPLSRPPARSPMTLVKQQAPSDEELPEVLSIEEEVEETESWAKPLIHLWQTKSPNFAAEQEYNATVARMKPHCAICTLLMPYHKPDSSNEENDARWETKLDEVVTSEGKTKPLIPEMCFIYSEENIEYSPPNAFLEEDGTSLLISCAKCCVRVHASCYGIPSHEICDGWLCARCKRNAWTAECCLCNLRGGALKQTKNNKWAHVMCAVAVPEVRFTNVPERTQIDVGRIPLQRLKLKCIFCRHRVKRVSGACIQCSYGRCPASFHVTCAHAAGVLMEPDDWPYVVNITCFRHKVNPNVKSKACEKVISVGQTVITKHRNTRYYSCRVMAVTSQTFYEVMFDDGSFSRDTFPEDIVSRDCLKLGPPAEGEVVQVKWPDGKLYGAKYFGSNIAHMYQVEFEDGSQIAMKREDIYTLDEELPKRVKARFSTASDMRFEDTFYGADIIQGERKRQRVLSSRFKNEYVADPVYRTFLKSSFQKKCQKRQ
Put plainly: inhibition of JMJD2C H3K9me3 demethylation – biochemical, DELFIA europium, cherry-picked samples, dose response (AID 488835). In kind it is functional.

Test [5] addresses Lysine-specific demethylase 4A (Homo sapiens, UniProt O75164). The test is described as follows: inhibition of JMJD2A H3K9me3 demethylation – biochemical, DELFIA europium, cherry-picked samples, selectivity assay for GASC-1 inhibitor project, dose response (AID 488840).
Test [6] concerns the target Large T antigen (Simian virus 40, UniProt P03070). It is filed as functional, Betapolyomavirus macacae.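 Also: Confirmatory-stage PubChem screen for compounds that inhibit SV40 T antigen.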
Test [7] deals with T3, Tyrosine-protein phosphatase non-receptor type 22 (Homo sapiens, UniProt Q9Y2R2).
T3 sequence (Q9Y2R2 whole entry): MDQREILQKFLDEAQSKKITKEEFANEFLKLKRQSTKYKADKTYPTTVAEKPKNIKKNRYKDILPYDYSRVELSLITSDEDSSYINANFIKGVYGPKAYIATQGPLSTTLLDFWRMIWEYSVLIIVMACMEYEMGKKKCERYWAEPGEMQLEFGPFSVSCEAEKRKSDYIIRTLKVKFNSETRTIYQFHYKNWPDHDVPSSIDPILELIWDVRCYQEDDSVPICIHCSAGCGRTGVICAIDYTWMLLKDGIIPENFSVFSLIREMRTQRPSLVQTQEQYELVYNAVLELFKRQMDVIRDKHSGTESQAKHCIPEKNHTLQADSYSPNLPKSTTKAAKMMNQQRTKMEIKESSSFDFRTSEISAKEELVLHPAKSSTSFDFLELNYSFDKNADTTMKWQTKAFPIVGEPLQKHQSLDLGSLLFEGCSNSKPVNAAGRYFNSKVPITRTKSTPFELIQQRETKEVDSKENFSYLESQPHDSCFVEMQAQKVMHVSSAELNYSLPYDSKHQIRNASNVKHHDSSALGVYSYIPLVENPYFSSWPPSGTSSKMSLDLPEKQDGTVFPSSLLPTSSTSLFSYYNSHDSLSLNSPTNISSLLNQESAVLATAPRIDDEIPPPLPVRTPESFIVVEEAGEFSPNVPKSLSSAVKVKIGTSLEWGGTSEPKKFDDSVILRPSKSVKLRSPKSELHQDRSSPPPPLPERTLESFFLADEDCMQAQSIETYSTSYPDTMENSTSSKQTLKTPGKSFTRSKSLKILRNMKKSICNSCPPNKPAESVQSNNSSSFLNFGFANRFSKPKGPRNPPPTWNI
Put plainly: LYP1 Fluorescent Assay using OMFP substrate for In Vitro dose response studies. [Related pubchem assays (depositor defined):AID1779, AID1784, AID435024].

The target in test [8] is T4, Tyrosine-protein phosphatase non-receptor type 7 (Homo sapiens, UniProt P35236).
T4 sequence (P35236 whole entry): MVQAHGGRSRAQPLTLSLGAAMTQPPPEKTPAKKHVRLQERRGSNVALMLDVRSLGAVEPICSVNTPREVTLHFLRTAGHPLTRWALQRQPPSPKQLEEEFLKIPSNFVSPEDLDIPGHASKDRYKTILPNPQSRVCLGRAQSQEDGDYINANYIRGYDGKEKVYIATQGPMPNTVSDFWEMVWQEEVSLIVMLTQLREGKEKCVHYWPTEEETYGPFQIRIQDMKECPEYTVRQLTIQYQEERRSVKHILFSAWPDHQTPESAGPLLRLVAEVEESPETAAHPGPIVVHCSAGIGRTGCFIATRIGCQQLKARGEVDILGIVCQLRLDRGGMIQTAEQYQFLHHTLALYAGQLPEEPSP
In kind it is functional.

The target of test [9] is T5, Dual specificity protein phosphatase 3 (Homo sapiens, UniProt P51452). The test is described as follows: VHR1 phosphatase inhibitors, biochemical (AID 1878).
T5 sequence (P51452 whole entry): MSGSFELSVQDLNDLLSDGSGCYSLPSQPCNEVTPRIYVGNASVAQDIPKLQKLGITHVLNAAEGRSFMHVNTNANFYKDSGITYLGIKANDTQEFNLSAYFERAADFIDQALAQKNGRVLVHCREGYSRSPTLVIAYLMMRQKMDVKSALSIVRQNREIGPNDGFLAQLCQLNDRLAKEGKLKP
The target in test [10] is T5, Dual specificity protein phosphatase 3. The test is described as follows: VHR1 phosphatase inhibitors, primary screen, biochemical, absorbance, uHTS (AID 1654).
Test [11] deals with T4, Tyrosine-protein phosphatase non-receptor type 7. The test is described as follows: HTS HePTP Fluorescent Assay using OMFP substrate for In Vitro dose response studies. [Related pubchem assays (depositor defined):AID1059, AID1077, AID1784, AID2068, AID2085, AID435032, AID521]. It is filed as functional.
Test [12] addresses T6, Aminopeptidase N (Plasmodium falciparum FcB1/Columbia, UniProt O96935).
T6 sequence (O96935 whole entry): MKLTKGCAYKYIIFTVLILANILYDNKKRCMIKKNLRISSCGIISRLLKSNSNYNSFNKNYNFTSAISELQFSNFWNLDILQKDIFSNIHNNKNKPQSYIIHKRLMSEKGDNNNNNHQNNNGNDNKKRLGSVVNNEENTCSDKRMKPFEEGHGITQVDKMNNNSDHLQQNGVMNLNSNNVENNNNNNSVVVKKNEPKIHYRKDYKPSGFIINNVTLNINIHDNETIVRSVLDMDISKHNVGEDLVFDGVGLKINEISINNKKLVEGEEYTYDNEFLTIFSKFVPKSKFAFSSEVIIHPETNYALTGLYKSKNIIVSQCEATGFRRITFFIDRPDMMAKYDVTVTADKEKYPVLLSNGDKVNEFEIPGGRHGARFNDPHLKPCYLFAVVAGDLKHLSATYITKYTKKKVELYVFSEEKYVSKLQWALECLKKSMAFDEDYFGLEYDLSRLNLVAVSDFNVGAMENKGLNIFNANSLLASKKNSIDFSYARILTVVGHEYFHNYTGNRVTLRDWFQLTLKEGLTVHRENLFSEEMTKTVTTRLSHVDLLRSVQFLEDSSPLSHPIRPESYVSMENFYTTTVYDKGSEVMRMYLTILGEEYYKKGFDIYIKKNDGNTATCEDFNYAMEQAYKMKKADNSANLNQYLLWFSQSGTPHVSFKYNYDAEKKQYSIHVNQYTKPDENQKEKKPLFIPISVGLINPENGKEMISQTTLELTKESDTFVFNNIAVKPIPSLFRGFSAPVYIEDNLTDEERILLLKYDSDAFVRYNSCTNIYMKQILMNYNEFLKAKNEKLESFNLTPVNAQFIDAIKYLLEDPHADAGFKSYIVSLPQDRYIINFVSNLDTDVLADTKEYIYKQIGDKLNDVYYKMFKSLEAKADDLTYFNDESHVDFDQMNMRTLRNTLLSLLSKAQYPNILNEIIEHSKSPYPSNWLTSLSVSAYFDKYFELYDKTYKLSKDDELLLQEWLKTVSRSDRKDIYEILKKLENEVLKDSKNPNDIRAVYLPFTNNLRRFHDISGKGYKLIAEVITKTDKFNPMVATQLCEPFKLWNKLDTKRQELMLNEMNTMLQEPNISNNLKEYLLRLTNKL
The test is described as follows: malaria alanyl aminopeptidase activity blockers – biochemical, fluorogenic H-Leu-NHMec substrate, 1536-well (AID 1445). The arrangement: species or system Plasmodium falciparum 3D7, 3D7.

The target of test [13] is T3, Tyrosine-protein phosphatase non-receptor type 22. It is filed as functional.
The target is the same in test [14]. In kind it is functional. This is another data set of the same source.
The target in test [15] is T7, Dual specificity protein phosphatase 6 (Rattus norvegicus, UniProt Q64346).
T7 sequence (Q64346 whole entry): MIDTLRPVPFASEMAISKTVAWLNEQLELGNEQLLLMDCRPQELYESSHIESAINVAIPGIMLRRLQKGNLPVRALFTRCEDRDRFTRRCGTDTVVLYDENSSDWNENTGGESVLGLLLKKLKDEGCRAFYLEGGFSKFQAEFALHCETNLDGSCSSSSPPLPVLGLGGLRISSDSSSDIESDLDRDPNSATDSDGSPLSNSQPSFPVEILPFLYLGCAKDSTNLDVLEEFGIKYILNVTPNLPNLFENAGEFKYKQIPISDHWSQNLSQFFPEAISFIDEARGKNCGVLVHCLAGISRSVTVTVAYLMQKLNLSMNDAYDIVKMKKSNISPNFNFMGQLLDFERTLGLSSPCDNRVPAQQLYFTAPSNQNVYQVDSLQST
The test is described as follows: inhibition of rat DUSP6 enzyme activity – biochemical, in vitro, primary screen (AID 425).

Test [16] has as its target T3, Tyrosine-protein phosphatase non-receptor type 22. The test is described as follows: PTPN22 lymphoid phosphatase activity blockers – biochemical, fluorescence intensity, uHTS (AID 1779).

Alkaline phosphatase, placental type, sequence (P05187 whole entry): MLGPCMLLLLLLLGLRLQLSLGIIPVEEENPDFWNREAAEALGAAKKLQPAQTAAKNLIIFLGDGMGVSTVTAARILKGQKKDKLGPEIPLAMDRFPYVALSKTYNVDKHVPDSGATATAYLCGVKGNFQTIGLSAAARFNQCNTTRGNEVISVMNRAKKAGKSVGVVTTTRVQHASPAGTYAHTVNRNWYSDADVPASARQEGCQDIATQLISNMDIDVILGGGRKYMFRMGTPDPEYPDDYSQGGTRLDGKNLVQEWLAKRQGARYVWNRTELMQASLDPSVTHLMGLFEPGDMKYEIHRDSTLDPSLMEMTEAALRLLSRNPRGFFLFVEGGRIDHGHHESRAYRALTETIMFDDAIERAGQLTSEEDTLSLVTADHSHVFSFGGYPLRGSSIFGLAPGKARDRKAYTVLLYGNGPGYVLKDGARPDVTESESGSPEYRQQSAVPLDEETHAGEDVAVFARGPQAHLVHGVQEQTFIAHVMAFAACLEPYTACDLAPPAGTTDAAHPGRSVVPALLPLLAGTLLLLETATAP
Lysine-specific demethylase 4A, sequence (O75164 whole entry): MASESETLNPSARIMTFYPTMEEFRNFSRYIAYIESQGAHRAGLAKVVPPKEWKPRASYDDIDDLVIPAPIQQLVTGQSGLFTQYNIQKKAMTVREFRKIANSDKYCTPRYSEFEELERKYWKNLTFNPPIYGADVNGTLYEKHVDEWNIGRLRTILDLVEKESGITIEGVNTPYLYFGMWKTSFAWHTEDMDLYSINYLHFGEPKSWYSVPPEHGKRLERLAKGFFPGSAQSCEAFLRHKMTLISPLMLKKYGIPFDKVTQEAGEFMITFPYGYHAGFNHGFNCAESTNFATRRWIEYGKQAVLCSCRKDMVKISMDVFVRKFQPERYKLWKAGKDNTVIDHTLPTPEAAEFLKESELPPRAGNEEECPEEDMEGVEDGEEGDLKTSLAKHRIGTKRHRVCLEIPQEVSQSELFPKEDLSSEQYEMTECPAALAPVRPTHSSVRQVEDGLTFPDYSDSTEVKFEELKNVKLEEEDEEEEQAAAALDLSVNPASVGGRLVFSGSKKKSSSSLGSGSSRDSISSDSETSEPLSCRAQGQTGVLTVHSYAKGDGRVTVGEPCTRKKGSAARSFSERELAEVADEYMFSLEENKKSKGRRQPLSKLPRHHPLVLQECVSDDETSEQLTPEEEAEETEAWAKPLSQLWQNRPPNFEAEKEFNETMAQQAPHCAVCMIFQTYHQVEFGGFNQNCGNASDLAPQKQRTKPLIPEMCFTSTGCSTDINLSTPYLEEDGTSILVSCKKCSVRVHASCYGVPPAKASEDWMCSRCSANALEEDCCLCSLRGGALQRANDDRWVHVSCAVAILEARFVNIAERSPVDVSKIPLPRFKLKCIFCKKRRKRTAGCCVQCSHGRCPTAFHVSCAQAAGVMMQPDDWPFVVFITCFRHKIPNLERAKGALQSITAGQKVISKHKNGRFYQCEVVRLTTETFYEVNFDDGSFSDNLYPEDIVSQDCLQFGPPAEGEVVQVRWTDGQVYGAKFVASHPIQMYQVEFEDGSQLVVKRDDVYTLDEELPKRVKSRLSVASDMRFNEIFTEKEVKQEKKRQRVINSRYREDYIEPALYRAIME
Large T antigen, sequence (P03070 whole entry): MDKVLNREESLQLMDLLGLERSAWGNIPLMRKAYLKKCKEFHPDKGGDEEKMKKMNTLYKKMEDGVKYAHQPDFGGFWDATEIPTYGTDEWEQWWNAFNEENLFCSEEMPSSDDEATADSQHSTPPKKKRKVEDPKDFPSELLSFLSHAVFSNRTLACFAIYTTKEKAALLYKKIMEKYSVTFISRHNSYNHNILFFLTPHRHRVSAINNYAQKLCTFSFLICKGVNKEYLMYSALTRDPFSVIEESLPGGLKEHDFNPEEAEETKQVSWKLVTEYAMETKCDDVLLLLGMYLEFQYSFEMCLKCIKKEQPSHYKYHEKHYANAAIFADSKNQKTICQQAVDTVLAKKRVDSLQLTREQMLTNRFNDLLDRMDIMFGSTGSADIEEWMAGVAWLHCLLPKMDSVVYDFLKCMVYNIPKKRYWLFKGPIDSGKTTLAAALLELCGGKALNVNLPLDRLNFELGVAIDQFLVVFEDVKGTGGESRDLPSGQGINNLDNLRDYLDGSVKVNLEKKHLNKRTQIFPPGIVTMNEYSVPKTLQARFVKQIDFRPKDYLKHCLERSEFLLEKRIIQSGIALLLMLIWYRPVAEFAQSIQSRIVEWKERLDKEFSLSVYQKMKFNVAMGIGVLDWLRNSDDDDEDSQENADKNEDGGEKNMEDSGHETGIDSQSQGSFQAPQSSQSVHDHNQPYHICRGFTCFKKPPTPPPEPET

The term IC50 denotes the concentration needed to halve the response being measured. Regarding `Oc1ccccc1-c1n[nH]c(-c2ccccc2O)n1`, the IC50 was > 100 µM (inactive) in [1], > 100 µM (not active) in test [2] and > 100 µM (inactive) in test [3].

`O=C1C2CC=CCC2C(=O)N1c1nnc(Cc2ccccc2)[nH]1` (centres undefined): the IC50 was 2.04 µM (active) and 3.25 µM (active) in test [1]; > 100 µM (not active) in test [2]; 169 nM (active) and 126 nM (active) and 172 nM (active) in [3].

A word on the AC50: it is the concentration at which the activity in the assay is half-maximal. As for `COc1ccc(NN=Nc2nc3c(=O)n(C)c(=O)n(C)c3[nH]2)cc1`, the results for the AC50 in [4] and in [5] were 8.08 µM (active) and > 60 µM (inactive), respectively. Also, the IC50 in test [6] is 36.8 µM (active).

For `COc1ccc(/N=C2\S/C(=C\c3ccc(OCC(=O)O)cc3)C(=O)N2CCc2c[nH]c3ccccc23)cc1`, the IC50 in test [7] was > 99 µM (inactive); in [8] it was 2.52 µM (active); in test [9], 2.43 µM (active); in [10], 3.49 µM (active); in [11], > 99 µM (inactive); in [12], 75.7 µM (active). Moreover, the IC50 is < 1.24 µM (active) in test [13], < 1.24 µM (active) in test [14], > 158 µM (not active) in test [15] and > 99 µM (inactive) in test [16].
